From patent US20070248727A1, “Method for Removing Hydrohydroquinone” (KAO CORPORATION, priority 2004, published 2007)

System: rats
Experiment: Urinary hydrogen peroxide level after giving coffee to rats
Format: in vivo
Details: rats given coffee
From the text: It is therefore desired to remove hydroxyhydroquinone from coffee.

Oc1ccc(O)c(O)c1 [hydroxyhydroquinone]
generation of hydrogen peroxide in the bodies: caused by hydroxyhydroquinone
